This note sets out measurements from patent publication US20260167623A1 (NIKANG THERAPEUTICS, INC., priority 2022, published 2026).

Structures are written as SMILES. Where only a bound is given, the exact number is not on record here.

In the assay the target is T1, CDK2 (Homo sapiens, UniProt P24941).
T1 construct: High-Throughput Measurement of Cellular Endogenous CDK2; endogenous in cells; host or cells: OVCAR3
Briefly: Inhibition of CDK2: phospho-Rb (S807/811) HTRF measurement in OVCAR3 cells, 24 h. The class given is cell-based. The note with it: 24 h compound treatment, read-out: pRB_OVCAR3_24h. Put shortly: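 OVCAR3 cells, seeded overnight, were exposed to compounds at 0.3 to 10,000 nM for 24 h, then lysed. Rb S807/811 phosphorylation read by HTRF (665/620 nm ratio) after 4 h detection at room temperature; data normalized to DMSO and IC50 from four-parameter logistic fit.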
Background: In TR-FRET formats the signal depends on donor and acceptor labels being close together.
As for `Cc1ncsc1-c1ccc([C@H](C)NC(=O)[C@@H]2C[C@@H](O)CN2C(=O)[C@@H](NC(=O)CC2CCN(Cc3cccc(S(=O)(=O)N4CCC(Nc5ncc(C(F)(F)F)cn5)CC4)c3)CC2)C(C)(C)C)cc1` [Example 9, (2S,4R)-1-((S)-3,3-dimethyl-2-(2-(1-(3-((4-((5-(trifluoromethyl)pyrimidin-2-yl)amino)piperidin-1-yl)sulfonyl)-benzyl)piperidin-4-yl)acetamido)butanoyl)-4-hydroxy-N-((S)-1-(4-(4-methylthiazol-5-yl)phenyl)ethyl)pyrrolidine-2-carboxamide], the IC50 is 100 to 500 nM.

Take `Cn1nc(N2CCC(=O)NC2=O)c2ccc(C3CCN(CC4CCN(c5cccc(S(=O)(=O)c6ccc(Nc7ncc(C(F)(F)F)cn7)cc6)c5)CC4)CC3)cc21` [Example 245, 1-(1-methyl-6-(1-((1-(3-((4-((5-(trifluoromethyl)pyrimidin-2-yl)amino)phenyl)sulfonyl)phenyl)piperidin-4-yl)methyl)piperidin-4-yl)-1H-indazol-3-yl)dihydropyrimidine-2,4(1H,3H)-dione]: the IC50 was more than 2500 nM.

Take `Cn1nc(N2CCC(=O)NC2=O)c2ccc(N3CC4(CN(Cc5cccc(S(=O)(=O)N6CCC(Nc7ncc(Cl)cn7)CC6)c5)C4)C3)cc21` [Example 46]: the IC50 fell in the range of 500 to 2500 nM.

Take `O=C1CCC(N2C(=O)c3cc(F)c(N4CCN(CC5CCN(c6cccc(S(=O)(=O)N7CCC(Nc8ncc(C(F)(F)F)cn8)CC7)c6)CC5)CC4)cc3C2=O)C(=O)N1` (stereo not drawn) [Example 80, 2-(2,6-dioxopiperidin-3-yl)-5-fluoro-6-(4-((1-(3-((4-((5-(trifluoromethyl)pyrimidin-2-yl)amino)piperidin-1-yl)sulfonyl)phenyl)-piperidin-4-yl)methyl)piperazin-1-yl)isoindoline-1,3-dione]: the IC50 was in the range of 100 to 500 nM.

For `O=C1CCC(N2Cc3cc(N4CCN(Cc5cccc(S(=O)(=O)N6CCC(Nc7ncc(Cl)cn7)CC6)c5)CC4)c(F)cc3C2=O)C(=O)N1` (stereo not drawn) [Example 34, 3-(5-(4-(3-((4-((5-chloropyrimidin-2-yl)amino)piperidin-1-yl)sulfonyl)benzyl)-piperazin-1-yl)-6-fluoro-1-oxoisoindolin-2-yl)piperidine-2,6-dione], the IC50 lay within 100 to 500 nM.

Take `Cn1nc(N2CCC(=O)NC2=O)c2ccc(C3CCN(CC4CCN(c5cccc(S(=O)(=O)N6[C@@H]7CC[C@H]6CC(Nc6ncc(Cl)cn6)C7)c5)CC4)CC3)cc21` (stereo partly drawn) [Example 227, 1-(6-(1-((1-(3-(((1R,5S)-3-((5-chloropyrimidin-2-yl)amino)-8-azabicyclo[3.2.1]octan-8-yl)sulfonyl)phenyl)piperidin-4-yl)methyl)piperidin-4-yl)-1-methyl-1H-indazol-3-yl)dihydropyrimidine-2,4(1H,3H)-dione]: the IC50 was 500 to 2500 nM.

On to `Cn1c(=O)n(C2CCC(=O)NC2=O)c2cccc(C3CCN(Cc4cccc(S(=O)(=O)N5CCC(Nc6ncc(OC(F)F)cn6)CC5)c4)CC3)c21` (stereo not drawn) [Example 128, 3-(4-(1-(3-((4-((5-(difluoromethoxy)-pyrimidin-2-yl)amino)piperidin-1-yl)sulfonyl)benzyl)piperidin-4-yl)-3-methyl-2-oxo-2,3-dihydro-1H-benzo[d]imidazol-1-yl)piperidine-2,6-dione], for which the IC50 was 1 to 100 nM.

As for `O=C1CCN(c2ccc(N3CCN(CC4CCN(c5cccc(S(=O)(=O)N6CCC(Nc7ncc(Cl)cn7)CC6)c5)CC4)CC3)cc2)C(=O)N1` [Example 109, 1-(4-(4-((1-(3-((4-((5-chloropyrimidin-2-yl)amino)piperidin-1-yl)sulfonyl)phenyl)-piperidin-4-yl)methyl)piperazin-1-yl)phenyl) dihydropyrimidine-2,4(1H,3H)-dione], the IC50 lay within 100 to 500 nM.

Regarding `O=C1CCN(c2cnc3c(C4CCN(CC5CCN(c6cccc(S(=O)(=O)N7CCC(Nc8ncc(Cl)cn8)CC7)c6)CC5)CC4)cccn23)C(=O)N1` [Example 213, 1-(8-(1-((1-(3-((4-((5-chloropyrimidin-2-yl)amino)piperidin-1-yl)sulfonyl)phenyl)piperidin-4-yl)methyl)piperidin-4-yl)imidazo[1,2-a]pyridin-3-yl)dihydropyrimidine-2,4(1H,3H)-dione], the IC50 is 100 to 500 nM.

Turning to `Cn1nc(N2CCC(=O)NC2=O)c2ccc(N3CCC(CN4CC5CCC(C4)N5c4cccc(S(=O)(=O)N5CCC(Nc6ncc(Cl)cn6)CC5)c4)CC3)cc21` [Example 191, 1-(6-(4-((8-(3-((4-((5-chloropyrimidin-2-yl)amino)piperidin-1-yl)sulfonyl)phenyl)-3,8-diazabicyclo[3.2.1]octan-3-yl)methyl)piperidin-1-yl)-1-methyl-1H-indazol-3-yl)dihydropyrimidine-2,4(1H,3H)-dione], the IC50 is more than 2500 nM.

For `Cn1nc(N2CCC(=O)NC2=O)c2ccc(C3CCN(CCC4CCCN(S(=O)(=O)N5CCC(Nc6ncc(C(F)(F)F)cn6)CC5)C4)CC3)cc21` (stereo not drawn) [Example 32, 1-(1-methyl-6-(1-(2-(1-((4-((5-(trifluoromethyl)pyrimidin-2-yl)amino)-piperidin-1-yl)sulfonyl)piperidin-3-yl)ethyl)piperidin-4-yl)-1H-indazol-3-yl)dihydropyrimidine-2,4(1H,3H)-dione], the IC50 fell in the range of 500 to 2500 nM.

On to `Cn1nc(N2CCC(=O)NC2=O)c2ccc(C3CCN(CC4CCN(S(=O)(=O)N5CCC(Nc6ncc(C(F)(F)F)cn6)CC5)CC4)CC3)cc21` [Example 15, 1-(1-methyl-6-(1-((1-((4-((5-(trifluoro-methyl)pyrimidin-2-yl)amino)piperidin-1-yl)sulfonyl)piperidin-4-yl)methyl)piperidin-4-yl)-1H-indazol-3-yl)dihydropyrimidine-2,4(1H,3H)-dione], for which the IC50 is 500 to 2500 nM.

In the case of `N#Cc1ccc(S(=O)(=O)N2CCC(Nc3ncc(Cl)cn3)CC2)cc1N1CCC(CN2CCN(c3ccc4c(c3)CN(C3CCC(=O)NC3=O)C4=O)CC2)CC1` (stereo not drawn) [Example 200, 4-((4-((5-chloropyrimidin-2-yl)amino)piperidin-1-yl)sulfonyl)-2-(4-((4-(2-(2,6-dioxopiperidin-3-yl)-1-oxoisoindolin-5-yl)piperazin-1-yl)methyl)piperidin-1-yl)benzonitrile], the IC50 lay in the range of 100 to 500 nM.

On to `Cn1nc(N2CCC(=O)NC2=O)c2ccc(C3CCN(Cc4cccc(S(=O)(=O)N5CCC(Nc6ncc(C(F)F)cn6)CC5)c4)CC3)cc21` [Example 13, 1-(6-(1-(3-((4-((5-(difluoromethyl)-pyrimidin-2-yl)amino)piperidin-1-yl)sulfonyl)benzyl)piperidin-4-yl)-1-methyl-1H-indazol-3-yl)dihydropyrimidine-2,4(1H,3H)-dione], for which the IC50 was in the range of 100 to 500 nM.

Regarding `O=C1CCC(NC(=O)c2ccc(C3CCN(CC4CCN(c5cccc(S(=O)(=O)N6CCC(Nc7ncc(C(F)(F)F)cn7)CC6)c5)CC4)CC3)cn2)C(=O)N1` (stereo not drawn) [Example 225, N-(2,6-dioxopiperidin-3-yl)-5-(1-((1-(3-((4-((5-(trifluoromethyl)pyrimidin-2-yl)amino)piperidin-1-yl)sulfonyl)phenyl)piperidin-4-yl)methyl)piperidin-4-yl)picolinamide], the IC50 lay within 100 to 500 nM.

For `CC(Cc1cccc(S(=O)(=O)N2CCC(Nc3ncc(C(F)(F)F)cn3)CC2)c1)CN1CCN(c2cc3c(cc2F)C(=O)N(C2CCC(=O)NC2=O)C3)CC1` (stereo not drawn) [Example 96, 3-(6-fluoro-5-(4-(2-methyl-3-(3-((4-((5-(trifluoromethyl)pyrimidin-2-yl)amino)-piperidin-1-yl)sulfonyl)phenyl)propyl)-piperazin-1-yl)-1-oxoisoindolin-2-yl)piperidine-2,6-dione], the IC50 lay in the range of 100 to 500 nM.

For `Cn1nc(N2CCC(=O)NC2=O)c2cc(C3CCN(CC4CCN(c5cccc(S(=O)(=O)N6CCC(Nc7ncc(C(F)(F)F)cn7)CC6)c5)CC4)CC3)ccc21` [Example 137, 1-(1-methyl-5-(1-((1-(3-((4-((5-(trifluoro-methyl)pyrimidin-2-yl)amino)piperidin-1-yl)sulfonyl)phenyl)piperidin-4-yl)methyl)-piperidin-4-yl)-1H-indazol-3-yl)dihydropyrimidine-2,4(1H,3H)-dione], the IC50 is 100 to 500 nM.

Take `O=C1CCC(N2Cc3cc(C4CCN(CC5CCN(c6cccc(S(=O)(=O)N7CCC(Nc8ncc(Cl)cn8)CC7)c6)CC5)CC4)c(F)cc3C2=O)C(=O)N1` (stereo not drawn) [Example 120, 3-(5-(1-((1-(3-((4-((5-chloropyrimidin-2-yl)amino)piperidin-1-yl)sulfonyl)phenyl)-piperidin-4-yl)methyl)piperidin-4-yl)-6-fluoro-1-oxoisoindolin-2-yl)piperidine-2,6-dione]: the IC50 was in the range of 100 to 500 nM.

For `Cn1nc(N2CCC(=O)NC2=O)c2ccc(N3CCC(NCc4cccc(S(=O)(=O)N5CCC(Nc6ncc(Cl)cn6)CC5)c4)CC3)cc21` [Example 84, 1-(6-(4-((3-((4-((5-chloropyrimidin-2-yl)amino)piperidin-1-yl)sulfonyl)benzyl)-amino)piperidin-1-yl)-1-methyl-1H-indazol-3-yl)dihydropyrimidine-2,4(1H,3H)-dione], the IC50 is more than 2500 nM.

Consider `Cn1nc(N2CCC(=O)NC2=O)c2ccc(C3CCN(Cc4cnn(-c5cccc(S(=O)(=O)N6CCC(Nc7ncc(Cl)cn7)CC6)c5)c4)CC3)cc21` [Example 131, 1-(6-(1-((1-(3-((4-((5-chloropyrimidin-2-yl)amino)piperidin-1-yl)sulfonyl)phenyl)-1H-pyrazol-4-yl)methyl)piperidin-4-yl)-1-methyl-1H-indazol-3-yl)dihydropyrimidine-2,4(1H,3H)-dione], for which the IC50 fell in the range of 1 to 100 nM.

With `Cn1c(=O)n(C2CCC(=O)NC2=O)c2cccc(C3CCN(CC4CCN(c5cc(C(F)(F)F)cc(S(=O)(=O)N6CCC(Nc7ncc(Cl)cn7)CC6)c5)CC4)CC3)c21` (stereo not drawn) [Example 173, 3-(4-(1-((1-(3-((4-((5-chloropyrimidin-2-yl)amino)piperidin-1-yl)sulfonyl)-5-(trifluoromethyl)phenyl)piperidin-4-yl)methyl)piperidin-4-yl)-3-methyl-2-oxo-2,3-dihydro-1H-benzo[d]imidazol-1-yl)piperidine-2,6-dione], the IC50 was 500 to 2500 nM.
